Measured values taken from patent US10883087B2, “Uricase sequences and methods of treatment” (MedImmune, LLC, priority 2015, dated 2021).

Legend:
Assay in all cases: Substrate depletion assay (UA)
[1] = system: O=c1[nH]c(=O)c2[nH]c(=O)[nH]c2[nH]1; assay type: biochemical, Deinococcus geothermalis; settings: other: PB, pH 7.4, typically 30° C., UA 23.8-400 μM, 292 nm
Protocol: (§4) Substrate depletion (UA) is another common method for assessing uricase activity. In the substrate depletion assay, uricase, UA, and phosphate buffer were incubated for 1 hour at the stated temperature (typically 30° C.). […] In some assays 1 mM DTT was added to the assay. The Molecular Devices reader temperature was set to the 30° C. Absorbance measurements at 292 nm were captured every 20 seconds for a period of 10 minutes. The rate of UA degradation was calculated by SoftMax Pro software. Vmax and Km were calculated for these uricases (see Table 5 below).

[2] = system: Krystexxa (pegloticase), PEGylated chimeric pig/baboon uricase; assay type: biochemical, pig and baboon (chimera); settings: PB, pH 7.4, typically 30° C.; UA 23.8-400 μM; 292 nm
Protocol: Five uricases (SEQ ID NOs: 27, 28, 29, 32, and 34) were evaluated for neutral pH solubility characteristics and activity in terms of product formation (H2O2) at pH 9.0 and 7.4. In the product formation assay, allantoin formation is proportional to H2O2 formation, which is linked to colorimetric horseradish peroxidase-catalyzed, colorimetric reaction. The appearance of hydrogen peroxide can be measured by an increase in absorbance at 540 nm. Product formation assays were proportional to substrate depletion assays in terms of uricase activity. […] The substrate depletion assays were much better for assessing kinetic parameters like Vmax and Km.
Substrate depletion (UA) is another common method for assessing uricase activity. In the substrate depletion assay, uricase, UA, and phosphate buffer were incubated for 1 hour at the stated temperature (typically 30° C.). Uricase was then diluted to 1 μg/mL and combined with a curve of UA (400 μM diluted down 1:1.6 to 23.8 μM) in 0.1M phosphate buffer (PB), pH 7.4. In some assays 1 mM DTT was added to the assay. The Molecular Devices reader temperature was set to the 30° C. Absorbance measurements at 292 nm were captured every 20 seconds for a period of 10 minutes. The rate of UA degradation was calculated by SoftMax Pro software. Vmax and Km were calculated for these uricases (see Table 5 below). […]

[3] = target: T1, Arthrobacter globiformis uricase, wt, SEQ ID NO: 27 (amino terminal His tag) (Arthrobacter globiformis, UniProt D0VWQ1); assay type: biochemical
T1 sequence (D0VWQ1 1-302): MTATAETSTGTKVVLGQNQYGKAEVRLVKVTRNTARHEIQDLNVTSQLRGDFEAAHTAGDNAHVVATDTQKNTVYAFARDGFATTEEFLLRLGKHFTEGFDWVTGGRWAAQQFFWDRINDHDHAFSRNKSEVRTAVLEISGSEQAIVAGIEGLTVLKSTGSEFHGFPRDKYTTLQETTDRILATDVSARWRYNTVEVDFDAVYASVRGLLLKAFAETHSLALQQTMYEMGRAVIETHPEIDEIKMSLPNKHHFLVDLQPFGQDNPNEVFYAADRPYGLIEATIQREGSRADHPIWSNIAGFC
Protocol: (§1) An initial screening paradigm was used to identify candidates for further optimization. The 8 uricase sequences described in Example 1 were cloned with an amino terminal His tag and expressed in E. coli. Each uricase construct was evaluated for expression level and in particular, soluble expression. Uricase expressing E. coli were lysed and soluble material was separated from insoluble (pellet) material. The lysates were separated by SDS-PAGE and the proteins were visualized by Coomassie blue staining. […] The pig-baboon chimera appears to express almost entirely in the pellet (P) (insoluble) fraction (FIG. 1, Lane 9). Cytosolic soluble (S) expression was considered a favorable property. […] Protein yield was determined by measuring the absorbance at 280 nm. […]
(§2) Five uricases (SEQ ID NOs: 27, 28, 29, 32, and 34) were evaluated for neutral pH solubility characteristics and activity in terms of product formation (H2O2) at pH 9.0 and 7.4. […] The appearance of hydrogen peroxide can be measured by an increase in absorbance at 540 nm. […]
(§3) Substrate depletion (UA) is another common method for assessing uricase activity. […] The Molecular Devices reader temperature was set to the 30° C. Absorbance measurements at 292 nm were captured every 20 seconds for a period of 10 minutes. The rate of UA degradation was calculated by SoftMax Pro software. Vmax and Km were calculated for these uricases (see Table 5 below). […]

[4] = target: Deinococcus geothermalis uricase, SEQ ID NO: 28 (amino terminal His tag) (Deinococcus geothermalis, UniProt Q1J399); assay type: biochemical
Protocol: as §4

[5] = system: Consensus uricase, SEQ ID NO: 34 (amino terminal His tag); assay type: biochemical; settings: PB, pH 7.4, typically 30° C.; UA 23.8-400 μM; 292 nm
From the text: After this process, the following 7 candidate sequences were chosen for further investigation: Arthrobacter globiformis uricase (SEQ ID NO: 27), Deinococcus geothermalis uricase (SEQ ID NO: 28), Deinococcus radiodurans uricase (SEQ ID NO: 29), Granulicella tundricola uricase (SEQ ID NO: 30), Solibacter usitatus uricase (SEQ ID NO: 31), Terriglobus saanensis uricase (SEQ ID NO: 32) and Kyrpidia tusciae uricase (SEQ ID NO: 33). Additionally, as an 8th sequence, a consensus uricase sequence was also devised from the alignment of many uricase sequences. The consensus sequence is represented by SEQ ID NO: 34.
An initial screening paradigm was used to identify candidates for further optimization. […] Each uricase construct was evaluated for expression level and in particular, soluble expression. […] Protein yield was determined by measuring the absorbance at 280 nm. […]
as §2
Substrate depletion (UA) is another common method for assessing uricase activity. […] The Molecular Devices reader temperature was set to the 30° C. Absorbance measurements at 292 nm were captured every 20 seconds for a period of 10 minutes. […]

[6] = substrate: O=c1[nH]c(=O)c2[nH]c(=O)[nH]c2[nH]1; assay type: biochemical, Arthrobacter globiformis
Protocol: as §1, §2, §3

[7] = substrate: O=c1[nH]c(=O)c2[nH]c(=O)[nH]c2[nH]1; assay type: biochemical, Terriglobus saanensis; settings: other: PB, pH 7.4, typically 30° C., UA 23.8-400 μM, 292 nm
Protocol: as §1, §2, §3

[8] = substrate: O=c1[nH]c(=O)c2[nH]c(=O)[nH]c2[nH]1; assay type: biochemical, Deinococcus radiodurans; settings: other: PB, pH 7.4, typically 30° C., UA 23.8-400 μM, 292 nm
Protocol: as §1, §2, §3

“Deinococcus geothermalis uricase, SEQ ID NO: 28 (amino terminal His tag) (Deinococcus geothermalis DSM 11300)” was tested, and the Km [1] was 55.7 µM.

For `O=c1[nH]c(=O)c2[nH]c(=O)[nH]c2[nH]1` [UA, uric acid], the Km [2] was 116 µM, the Vmax [2] was 5.7 and the “better kcat/Km relative to Krystexxa” value ([3]; ratio to Krystexxa) was about 2 fold. For the same molecule, the “better Km relative to Krystexxa” value ([3]; ratio to Krystexxa (55.7 versus 116.3)) was 2 fold, the “Vmax” value ([4]; compared with Krystexxa) was 10.8 and the “better kcat/Km relative to Krystexxa” value ([4]; ratio to Krystexxa) was about 2 fold. For the same molecule, the “improved Vmax relative to Krystexxa” value ([4]; ratio to Krystexxa (10.8 versus 5.7)) was 2 fold and the Km [5] was 31.8 µM.

B1: Arthrobacter globiformis uricase, wt, SEQ ID NO: 27 (amino terminal His tag) (Arthrobacter globiformis) (protein)
chain: T1 sequence (D0VWQ1 1-302)
B1 was tested, and the Km ([6]; other: PB, pH 7.4, typically 30° C., UA 23.8-400 μM, 292 nm, pH 7.4) was 110 µM and the Km ([6]; other: restated in text, compared with Krystexxa, 30.0 °C) was 55.7 µM.

B2: Terriglobus saanensis uricase, SEQ ID NO: 32 (amino terminal His tag) (Terriglobus saanensis SP1PR4) (protein)
chain: MAKLIDSRYGKARVRVMKLDRSQPQHQLLEWTVRVLLEGDFETAHTVGDNSNILPTDTMKNTVYSRAKESKAETPEEFAIELAEFLLGRNPQVHTVEVKIETAMWKRLVVDGKPHGSSFMRGSDELGTVLHHATRETKTMVCGVENMVILKSQNSSFEGYIQDDLTTLKPTADRLFATAMTADWDYTDGGSAFAARREAIREAMLKAFAEHDSKSVQQTLYAMAEAAMAAVPAVNRVHMVMPNKHCLLVDLKHFGQENNNEIFVPTEDPHGYIEATVVRE
With B2 the Km [7] was 76.2 µM.

B3: Deinococcus radiodurans uricase, SEQ ID NO: 29 (amino terminal His tag) (Deinococcus radiodurans R1 = ATCC 13939 = DSM 20539) (protein)
chain: MMTGTQQPGTQPKVKVRLGENNYGKAEVQLMKIKRGTPRHELREAKVRVAMYGDFGAAHSEGDNTDLVATDTVRNTVYGLAKEGFESSIEEFGKELLTHFVKVGPRVTGGFAEFTEHLWERVQTPAQPQGHDHAFVRQMPKRTARVETQDGRRFTVTSGIEELYVLKTTESGWENYLLDERFTTLPETHDRVMATFVTAKWEYAVESCDYDAVWERVYRQIQHTFTDHYSPSLQRTLYLMGEAVLSVCPEISRIWFQMPNKHHLVYNLGRFGLENNNEILHVDPEPYGLMEAWVERAE
In the case of B3, the Km [8] is reported as 83.1 µM.
